Tests used:
[1] = system: T lymphocyte cell line Jurkat E6-1; experiment: Cytotoxicity experiment (CCK-8, relative cell survival); type: cell-based; conditions: 24 hours, untreated cells = 100%
In short: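 Relative survival versus untreated cells (set to 100%) from CCK-8 absorbance at 450 nm after 2 h dye incubation. Cells had been treated with graded compound concentrations for 24 h at 37 °C in 5% CO2, cultured in RPMI-1640 plus 10% FBS.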

[2] = system: psoriasis mouse animal model; experiment: Psoriasis mouse animal model (imiquimod-induced); type: in vivo, BALB/c mice; conditions: 40 mg/kg intraperitoneally twice a day
Text: To confirm the therapeutic effect of compounds according to the present invention on psoriasis, a psoriasis animal model was established to evaluate the alleviation of skin lesions and changes in immune cell profiles by administering Compound 69 or Compound 83 via injection.
To establish a psoriasis mouse animal model, BALB/c mice (7 weeks old, 20 g, female) were purchased from Hana Biotech Co. and allowed to acclimate to the housing environment for one week. Afterward, the fur on the dorsal area of the mice was initially shaved using a shaver, followed by complete removal with depilatory cream (Nicrin Cream, comprising thioglycolic acid 80%, manufactured by ILDONG Pharmaceutical CO., LTD). The mice were then housed for 24 hours to confirm any wounds on their backs.
Subsequently, in order to verify the preventive and therapeutic effects of compounds according to the present invention on psoriasis, five experimental groups were established as shown in FIG. 7 and Table 5. From the second to the fifth group, Aldara® cream was applied once daily for two weeks (14 days, total of 14 applications) at a dose of 80 mg (imiquimod, 4 mg) per mouse to induce psoriasis. Furthermore, to compare the preventive and therapeutic effects of compounds according to the present invention (Compound 69 and Compound 83) on psoriasis, 40 mg/kg of the compound per mouse was dissolved in DMSO corresponding to 10% of the dosing volume, and then diluted in a mixture of Cremophor EL-PEG 400-distilled water to achieve a final ratio of DMSO: Cremophor EL:PEG 400:distilled water to 1:1:4:4 (v/v/v/v). Subsequently, the respective injections were intraperitoneally administered at a dose of 100 μL per mouse, twice a day with a 12-hour interval. For the Vehicle control group, injections excluding the drug but comprising the vehicle solution (DMSO: Cremophor EL:PEG 400:distilled water=1:1:4:4 (v/v/v/v)) were administered at a dose of 100 μL per mouse, twice a day with a 12-hour interval.
To assess the impact of each compound on immune cells in vivo, the spleens of mice treated with each compound were harvested, and cells were extracted, and cells were suspended in MACS buffer (2 mM EDTA, 0.5% FBS, 137 mM NaCl, 2.7 mM KCl, 10 mM Na2HPO4, 1.8 mM KH2PO4, Miltenyi Biotech.). For flow cytometry analysis, each mouse's splenocytes were aliquoted at 5×10^5 cells per FACS tube (5 mL round tube, Falcon). To prevent non-specific antibody binding, each tube was treated with 1 μg/mL of anti-mouse CD16/CD32 (InVivoMAb) for 30 minutes, followed by centrifugation at 13,000 rpm for 5 minutes, and resuspended in 100 μL of MACS buffer. Subsequent experiments were conducted depending on the type of immune cells to be examined.
(§1) For B cells, each FACS tube was stained with 1 μg/mL of FITC-conjugated anti-B220 antibody (eBioscience™) at 4° C. for 30 minutes, followed by washing with 2 mL of MACS buffer. Subsequently, each tube was centrifuged at 15,000 rpm for 5 minutes, the supernatant was removed, and the precipitated cells were fixed using 200 μL of 4% paraformaldehyde solution.
For T cells, each FACS tube was stained with 1 μg/mL of PerCP-Cy5.5-conjugated anti-CD3 antibody (Biolegend), FITC-conjugated anti-CD8 antibody (eBioscience™) and Cy7-conjugated anti-CD4 antibody (eBioscience™) at 4° C. for 30 minutes, followed by washing with 2 mL of MACS buffer. Subsequently, each tube was centrifuged at 15,000 rpm for 5 minutes, the supernatant was removed, and the precipitated cells were fixed using 200 μL of 4% paraformaldehyde solution.
as §1, with “macrophages,” for “B cells,”, “anti-CD11b” for “anti-B220”

[3] = flow cytometry, versus psoriasis groups, FIG. 10

Compound: CCCCCCCCCCCCNC(=O)c1cccnc1N [Compound 69]
- Relative cell survival rate (%) ([1]; 10 μM): 95%
- Relative cell survival rate (%) ([1]; 20 μM): 94%
- Relative cell survival rate (%) ([1]; 30 μM): 88%
- Relative cell survival rate (%) ([1]; 50 μM): 84%
- skin lesions (erythema, thickness, exfoliation of back skin) ([2]; 14 days, FIG. 8): either minimally present or hardly observed
- hyperkeratosis, parakeratosis, irregular acanthosis, infiltration of inflammatory cells (H&E staining) ([2]; 14 days, FIG. 9): either minimally present or hardly observed
- proportion of B cells in the spleen [2, 3]: increase
- proportion of CD11b granulocytes in the spleen [2, 3]: decreased
- proportion of T cells in the spleen [2, 3]: increase

Reference: patent US20250296909A1, “NOVEL BENZENE DERIVATIVE AND IMMUNOSUPPRESSION-RELATED USE THEREOF” (PROVIBIO CO., LTD., priority 2021, published 2025)
